Reference: patent US20210346394A1, “Remyelination Therapy” (The Regents of the University of California, priority 2016, published 2021)

Legend:
[1] = system: OPCs derived from WT P7 rat pups; experiment: Differentiation of isolated OPCs treated with SERMs (MBP/PDGFRα/DAPI immunostaining); format: cell-based; conditions: 500 nM for 48 hours
Method: Example 3. OPC Differentiation. To assess the effect of selected SERMs on myelination, OPCs were derived from WT P7 rat pups using previously validated methodology, cultured in isolation, and treated with a select group of SERMs at a preliminary concentration of 500 nM for 48 hours. Cells were then permeabilized and immunostained for MBP (oligodendrocytes), PDGFRα (OPCs), and DAPI (cell bodies).

[2] = system: demyelinated lesion in corpus callosum; experiment: Lysolecithin-induced demyelination of the corpus callosum; format: in vivo; conditions: mice, 10 mg/kg for 7 days after lysolecithin, 10 days post injection, vs vehicle
Method: Example 5. Effects of BZA on OPC Differentiation. Lysolecithin was injected in the corpus callosum of mice and analyzed at 6 days after injection, showing a demyelinated lesion area. Mice were treated with either BZA (10 mg/kg) or vehicle control for 7 days after injection of lysolecithin. Mice were euthanized at 10 days post injection and brains were sectioned and immunostained for myelin oligodendrocyte glycoprotein peptide (MOG), Adenomatous polyposis coli (APC-a maker of mature oligodendrocytes) and Olig2. Quantification of APC-positive cells indicated a 2-fold increase in remyelination in the corpus callosum after treatment with BZA, as depicted in FIG. 3.
Example 6. BZA effects on remyelination kinetics. Toxic, focal demyelinating injury was induced in the corpus callosum of 8-week old adult mice the rate and extent of remyelination was assessed, using previously described methodology. Demyelination was induced by injecting 1 μl of 1% solution of lysolecithin. Essential to this demyelinating model is the timeline for repair, comprising active demyelination [1-3 days post lesion (dpl)], OPC recruitment (3-7 dpl, peaking at 5 dpl), oligodendrocyte differentiation (7-10 dpl) and active remyelination (14-21 dpl). Oligodendrocyte differentiation and remyelination at 10 dpl was analyzed, allowing assessment of BZA effects on the kinetics of myelin repair. […]

N#CC(Cc1ccc(O)cc1)c1ccc(O)cc1 (stereo not drawn) [2,3-bis(4-hydroxyphenyl)-propionitrile]
OPC differentiation [1]: significantly enhanced OPC differentiation

Cc1c(-c2ccc(O)cc2)n(Cc2ccc(OCCN3CCCCCC3)cc2)c2ccc(O)cc12 [BZA, bazedoxifene]
increase in remyelination (APC-positive cells) in the corpus callosum [2]: 2 fold

CC/C(=C(\c1ccccc1)c1ccc(OCCN(C)C)cc1)c1ccccc1 [tamoxifen]
OPC differentiation [1]: significantly enhanced OPC differentiation
